Assay results taken from ChEMBL document CHEMBL3997792, “Identification of the First Selective Activin Receptor-Like Kinase 1 Inhibitor, a Reversible Version of L-783277” (J Med Chem, 2017).
Calls of active or inactive are those of the source. The rule behind the calls is not given here.

Key:
[1] = biological target: T1, Activin receptor type-1-like (Mus musculus) (UniProt Q61288); assay: Inhibition of BMP9-stimulated ALK1 in mouse C2C12 cells assessed as reduction in Smad1/5 phosphorylation at 10 uM pretreated for 2 hrs followed by BMP9-stimulation after 30 mins by western blot analysis relative to control; assay type: cell-based
T1 sequence (whole entry): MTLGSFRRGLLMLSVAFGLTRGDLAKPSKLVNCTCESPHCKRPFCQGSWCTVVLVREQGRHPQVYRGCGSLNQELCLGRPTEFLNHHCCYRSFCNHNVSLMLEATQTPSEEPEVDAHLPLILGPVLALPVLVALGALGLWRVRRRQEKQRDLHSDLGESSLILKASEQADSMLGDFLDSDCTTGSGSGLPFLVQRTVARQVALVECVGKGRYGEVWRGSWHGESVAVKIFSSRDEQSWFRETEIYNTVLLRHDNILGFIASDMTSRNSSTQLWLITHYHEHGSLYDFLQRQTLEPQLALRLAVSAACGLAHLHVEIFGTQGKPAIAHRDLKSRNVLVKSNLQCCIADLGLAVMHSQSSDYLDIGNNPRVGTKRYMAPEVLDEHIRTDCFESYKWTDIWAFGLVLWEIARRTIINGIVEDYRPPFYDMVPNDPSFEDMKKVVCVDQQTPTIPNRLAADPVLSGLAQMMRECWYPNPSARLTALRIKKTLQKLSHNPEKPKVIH

[2] = biological target: T2, Activin receptor type-1-like (Homo sapiens, UniProt P37023); assay: Inhibition of human ALK1 using casein as substrate in presence of [gamma-33P]-ATP by scintillation counting method
[3] = biological target: T1, Activin receptor type-1-like (Mus musculus); assay: Inhibition of BMP9-stimulated ALK1 in mouse C2C12 cells assessed as decrease in MEK phosphorylation at 0.1 to 10 uM pretreated for 2 hrs followed by BMP9-stimulation after 30 mins by western blot analysis; assay type: cell-based
TGF-beta receptor type-1 [4] = biological target: T3, TGF-beta receptor type-1 (Mus musculus, UniProt Q64729); assay: Inhibition of ALK5 in mouse C2C12 cells assessed as decrease in TGFbeta1-induced Smad2/3 phosphorylation at 0.1 to 10 uM by Western blot method; assay type: cell-based
T3 sequence (Q64729 whole entry): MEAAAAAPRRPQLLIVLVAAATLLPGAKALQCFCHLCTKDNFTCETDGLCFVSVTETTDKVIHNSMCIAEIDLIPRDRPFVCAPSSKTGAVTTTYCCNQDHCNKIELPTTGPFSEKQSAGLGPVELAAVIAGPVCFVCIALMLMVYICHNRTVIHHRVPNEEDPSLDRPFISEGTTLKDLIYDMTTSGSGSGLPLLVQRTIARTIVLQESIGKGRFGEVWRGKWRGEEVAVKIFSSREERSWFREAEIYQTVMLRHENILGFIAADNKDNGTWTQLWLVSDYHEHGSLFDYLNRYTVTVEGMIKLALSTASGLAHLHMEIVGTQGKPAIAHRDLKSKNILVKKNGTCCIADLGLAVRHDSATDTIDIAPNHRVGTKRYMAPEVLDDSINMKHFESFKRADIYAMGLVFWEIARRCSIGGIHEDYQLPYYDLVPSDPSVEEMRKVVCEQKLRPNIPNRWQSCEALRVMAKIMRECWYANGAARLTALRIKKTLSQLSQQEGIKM

[5] = biological target: Dual specificity mitogen-activated protein kinase kinase 2 (Homo sapiens, UniProt P36507); assay: Inhibition of human MEK2 using ERK2 as substrate in presence of [gamma-33P]-ATP by scintillation counting method
[6] = biological target: T1, Activin receptor type-1-like (Mus musculus); assay: Inhibition of BMP9-stimulated ALK1 in mouse C2C12 cells assessed as reduction in Smad1/5 phosphorylation at 0.1 to 10 uM pretreated for 2 hrs followed by BMP9-stimulation after 30 mins by western blot analysis; assay type: cell-based
[7] = biological target: Mitogen-activated protein kinase kinase kinase 20 (Homo sapiens) (UniProt Q9NYL2); settings: 1 uM
Description: Inhibition of human ZAK at 1 uM using myelin basic protein as substrate in presence of [gamma-33P]-ATP by scintillation counting method relative to control

[8] = biological target: TGF-beta receptor type-2 (Homo sapiens) (UniProt P37173); settings: 1 uM
Description: Inhibition of human TGFbetaR2 at 1 uM using myelin basic protein as substrate in presence of [gamma-33P]-ATP by scintillation counting method relative to control

[9] = biological target: MAP kinase-interacting serine/threonine-protein kinase 2 (Homo sapiens) (UniProt Q9HBH9); settings: 1 uM
Description: Inhibition of human MNK2 at 1 uM using myelin basic protein as substrate in presence of [gamma-33P]-ATP by scintillation counting method relative to control

[10] = biological target: Dual specificity mitogen-activated protein kinase kinase 6 (Homo sapiens, UniProt P52564); assay: Inhibition of human MKK6 using p38a as substrate in presence of [gamma-33P]-ATP by scintillation counting method
[11] = biological target: MAP kinase-interacting serine/threonine-protein kinase 1 (Homo sapiens) (UniProt Q9BUB5); settings: 1 uM
Description: Inhibition of human MNK1 at 1 uM using myelin basic protein as substrate in presence of [gamma-33P]-ATP by scintillation counting method relative to control

[12] = biological target: Vascular endothelial growth factor receptor 2 (Homo sapiens, UniProt P35968); assay: Inhibition of human KDR using poly[Glu:Tyr] (4:1) as substrate in presence of [gamma-33P]-ATP by scintillation counting method
[13] = biological target: T1, Activin receptor type-1-like (Mus musculus); assay: Inhibition of BMP9-stimulated ALK1 in mouse C2C12 cells assessed as decrease in ERK1/2 phosphorylation at 0.1 to 10 uM pretreated for 2 hrs followed by BMP9-stimulation after 30 mins by western blot analysis; assay type: cell-based
[14] = biological target: Dual specificity mitogen-activated protein kinase kinase 4 (Homo sapiens) (UniProt P45985); settings: 1 uM
Description: Inhibition of human MKK4 at 1 uM using JNK1 as substrate in presence of [gamma-33P]-ATP by scintillation counting method relative to control

[15] = biological target: Vascular endothelial growth factor receptor 3 (Homo sapiens, UniProt P35916); assay: Inhibition of human FLT4 using poly[Glu:Tyr] (4:1) as substrate in presence of [gamma-33P]-ATP by scintillation counting method
[16] = biological target: Mitogen-activated protein kinase kinase kinase 7 (Homo sapiens) (UniProt O43318); settings: 1 uM
Description: Inhibition of human TAK1 at 1 uM using casein as substrate in presence of [gamma-33P]-ATP by scintillation counting method relative to control

TGF-beta receptor type-1 [17] = biological target: T3, TGF-beta receptor type-1; assay: Inhibition of ALK5 in mouse C2C12 assessed as decrease in TGFbeta1-induced Smad1/5 phosphorylation at 0.1 to 10 uM by Western blot method
[18] = biological target: Dual specificity mitogen-activated protein kinase kinase 6 (Homo sapiens) (UniProt P52564); assay: Inhibition of human MKK6 at 1 uM using p38a as substrate in presence of [gamma-33P]-ATP by scintillation counting method relative to control
[19] = biological target: T1, Activin receptor type-1-like (Mus musculus); assay: Inhibition of BMP9-stimulated ALK1 in mouse C2C12 cells assessed as decrease in p38 phosphorylation at 0.1 to 10 uM pretreated for 2 hrs followed by BMP9-stimulation after 30 mins by western blot analysis; assay type: cell-based
[20] = biological target: T2, Activin receptor type-1-like; settings: 0.1 to 10 uM
Description: Inhibition of ALK1 in human A375 cells assessed as decrease in MEK1/2 phosphorylation at 0.1 to 10 uM by western blot analysis

[21] = biological target: Receptor-type tyrosine-protein kinase FLT3 (Homo sapiens, UniProt P36888); assay: Inhibition of human FLT3 using EAIYAAPFAKKK peptide as substrate in presence of [gamma-33P]-ATP by scintillation counting method
[22] = biological target: T2, Activin receptor type-1-like; assay: Inhibition of human ALK1 at 10 uM using casein as substrate in presence of [gamma-33P]-ATP by scintillation counting method relative to control

T2 sequence (P37023 whole entry): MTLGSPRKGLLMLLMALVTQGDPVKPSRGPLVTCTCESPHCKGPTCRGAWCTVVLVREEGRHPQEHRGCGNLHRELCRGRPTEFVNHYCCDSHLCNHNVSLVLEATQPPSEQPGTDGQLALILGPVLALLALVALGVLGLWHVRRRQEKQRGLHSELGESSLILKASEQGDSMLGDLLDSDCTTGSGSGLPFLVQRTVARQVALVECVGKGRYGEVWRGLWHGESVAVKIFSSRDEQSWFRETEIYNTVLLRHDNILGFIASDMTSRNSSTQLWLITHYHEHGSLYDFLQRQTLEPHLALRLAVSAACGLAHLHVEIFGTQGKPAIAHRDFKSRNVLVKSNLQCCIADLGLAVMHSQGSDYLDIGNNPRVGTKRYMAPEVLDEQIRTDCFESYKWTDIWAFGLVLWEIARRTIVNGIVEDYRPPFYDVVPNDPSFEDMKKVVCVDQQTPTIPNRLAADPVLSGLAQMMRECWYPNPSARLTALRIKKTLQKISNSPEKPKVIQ
Sequence of Vascular endothelial growth factor receptor 3 (P35916 whole entry): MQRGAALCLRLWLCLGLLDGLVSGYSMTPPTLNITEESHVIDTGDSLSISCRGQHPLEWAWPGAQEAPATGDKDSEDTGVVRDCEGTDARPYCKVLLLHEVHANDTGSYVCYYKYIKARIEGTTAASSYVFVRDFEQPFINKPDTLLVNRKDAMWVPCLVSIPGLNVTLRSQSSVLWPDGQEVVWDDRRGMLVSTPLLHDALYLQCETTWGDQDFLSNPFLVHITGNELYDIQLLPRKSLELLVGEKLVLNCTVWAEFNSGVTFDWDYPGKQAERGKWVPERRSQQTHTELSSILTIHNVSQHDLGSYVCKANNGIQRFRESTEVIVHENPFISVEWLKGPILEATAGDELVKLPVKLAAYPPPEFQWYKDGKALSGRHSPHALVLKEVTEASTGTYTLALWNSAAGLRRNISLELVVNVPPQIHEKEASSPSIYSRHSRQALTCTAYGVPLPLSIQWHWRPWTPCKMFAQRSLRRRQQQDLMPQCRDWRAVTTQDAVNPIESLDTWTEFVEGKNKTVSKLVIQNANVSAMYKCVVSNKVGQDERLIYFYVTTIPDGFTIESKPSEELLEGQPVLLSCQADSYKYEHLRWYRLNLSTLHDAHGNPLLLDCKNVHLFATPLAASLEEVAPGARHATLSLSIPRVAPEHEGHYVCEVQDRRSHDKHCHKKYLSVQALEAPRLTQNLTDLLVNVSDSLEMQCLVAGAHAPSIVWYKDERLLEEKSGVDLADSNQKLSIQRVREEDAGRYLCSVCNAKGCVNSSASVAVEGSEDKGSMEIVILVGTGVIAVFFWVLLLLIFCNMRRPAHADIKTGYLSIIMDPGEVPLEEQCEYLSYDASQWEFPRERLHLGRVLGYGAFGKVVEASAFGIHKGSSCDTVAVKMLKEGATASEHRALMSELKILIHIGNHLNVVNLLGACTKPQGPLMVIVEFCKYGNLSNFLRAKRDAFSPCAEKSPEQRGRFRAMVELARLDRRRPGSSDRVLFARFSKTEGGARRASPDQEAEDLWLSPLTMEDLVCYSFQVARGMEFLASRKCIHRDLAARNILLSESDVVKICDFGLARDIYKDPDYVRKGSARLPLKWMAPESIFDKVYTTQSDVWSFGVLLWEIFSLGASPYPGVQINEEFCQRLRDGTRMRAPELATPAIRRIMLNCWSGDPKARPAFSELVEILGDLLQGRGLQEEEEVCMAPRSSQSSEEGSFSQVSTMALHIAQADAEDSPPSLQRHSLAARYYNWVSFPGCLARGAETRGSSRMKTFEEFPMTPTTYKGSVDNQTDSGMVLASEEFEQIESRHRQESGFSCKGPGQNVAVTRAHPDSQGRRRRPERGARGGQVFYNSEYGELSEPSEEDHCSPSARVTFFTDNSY
Sequence of Dual specificity mitogen-activated protein kinase kinase 4 (Homo sapiens) (P45985 whole entry): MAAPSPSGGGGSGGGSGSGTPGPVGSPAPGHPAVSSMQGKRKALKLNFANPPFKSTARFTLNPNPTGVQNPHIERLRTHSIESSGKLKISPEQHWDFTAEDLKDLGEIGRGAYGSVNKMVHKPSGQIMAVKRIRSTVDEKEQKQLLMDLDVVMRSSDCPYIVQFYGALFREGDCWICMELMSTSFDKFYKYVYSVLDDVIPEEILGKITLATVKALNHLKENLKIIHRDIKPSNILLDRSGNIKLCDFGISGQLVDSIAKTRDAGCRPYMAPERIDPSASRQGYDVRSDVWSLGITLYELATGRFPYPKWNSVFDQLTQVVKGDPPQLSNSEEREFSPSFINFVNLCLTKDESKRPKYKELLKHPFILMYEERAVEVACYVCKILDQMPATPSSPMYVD
Sequence of Mitogen-activated protein kinase kinase kinase 7 (Homo sapiens) (O43318 whole entry): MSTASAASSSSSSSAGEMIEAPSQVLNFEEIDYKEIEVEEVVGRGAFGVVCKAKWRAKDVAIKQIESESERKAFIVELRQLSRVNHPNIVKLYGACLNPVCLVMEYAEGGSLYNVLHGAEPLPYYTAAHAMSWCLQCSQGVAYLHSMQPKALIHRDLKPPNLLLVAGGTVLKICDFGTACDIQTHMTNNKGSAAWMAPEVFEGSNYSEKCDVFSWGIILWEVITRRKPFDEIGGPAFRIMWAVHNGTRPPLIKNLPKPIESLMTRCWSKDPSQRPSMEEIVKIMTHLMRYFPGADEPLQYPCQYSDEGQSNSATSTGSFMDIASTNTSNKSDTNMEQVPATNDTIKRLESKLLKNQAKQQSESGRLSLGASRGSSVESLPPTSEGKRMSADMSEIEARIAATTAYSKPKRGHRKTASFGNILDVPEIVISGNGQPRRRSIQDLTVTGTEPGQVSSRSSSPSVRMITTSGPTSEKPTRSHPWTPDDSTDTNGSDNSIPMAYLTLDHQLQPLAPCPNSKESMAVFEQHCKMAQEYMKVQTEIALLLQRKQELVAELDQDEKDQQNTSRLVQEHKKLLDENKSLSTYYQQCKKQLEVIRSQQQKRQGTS
Sequence of Receptor-type tyrosine-protein kinase FLT3 (P36888 whole entry): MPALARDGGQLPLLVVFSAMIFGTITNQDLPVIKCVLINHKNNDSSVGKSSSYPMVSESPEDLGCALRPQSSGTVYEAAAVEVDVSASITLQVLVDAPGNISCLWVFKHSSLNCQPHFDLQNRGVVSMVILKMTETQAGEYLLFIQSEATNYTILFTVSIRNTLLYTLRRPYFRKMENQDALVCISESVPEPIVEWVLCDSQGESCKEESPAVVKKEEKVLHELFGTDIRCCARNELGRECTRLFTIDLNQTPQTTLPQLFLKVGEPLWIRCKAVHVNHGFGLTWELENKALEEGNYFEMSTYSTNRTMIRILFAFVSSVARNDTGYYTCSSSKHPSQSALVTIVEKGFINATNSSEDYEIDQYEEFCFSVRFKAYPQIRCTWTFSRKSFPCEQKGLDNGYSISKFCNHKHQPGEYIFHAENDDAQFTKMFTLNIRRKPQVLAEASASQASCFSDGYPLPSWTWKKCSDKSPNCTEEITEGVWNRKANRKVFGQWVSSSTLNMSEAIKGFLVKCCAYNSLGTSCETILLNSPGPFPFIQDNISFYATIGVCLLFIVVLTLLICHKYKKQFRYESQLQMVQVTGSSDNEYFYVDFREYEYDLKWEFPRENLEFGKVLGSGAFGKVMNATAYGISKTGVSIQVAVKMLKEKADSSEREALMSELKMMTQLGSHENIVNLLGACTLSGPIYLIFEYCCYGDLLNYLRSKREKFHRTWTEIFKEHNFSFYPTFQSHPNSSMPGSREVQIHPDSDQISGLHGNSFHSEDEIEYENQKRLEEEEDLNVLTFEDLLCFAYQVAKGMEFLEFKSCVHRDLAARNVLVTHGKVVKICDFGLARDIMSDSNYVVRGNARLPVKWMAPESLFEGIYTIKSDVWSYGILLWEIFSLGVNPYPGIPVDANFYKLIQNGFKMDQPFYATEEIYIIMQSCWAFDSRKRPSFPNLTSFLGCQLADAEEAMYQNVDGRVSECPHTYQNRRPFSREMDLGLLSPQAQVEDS
Sequence of TGF-beta receptor type-2 (Homo sapiens) (P37173 whole entry): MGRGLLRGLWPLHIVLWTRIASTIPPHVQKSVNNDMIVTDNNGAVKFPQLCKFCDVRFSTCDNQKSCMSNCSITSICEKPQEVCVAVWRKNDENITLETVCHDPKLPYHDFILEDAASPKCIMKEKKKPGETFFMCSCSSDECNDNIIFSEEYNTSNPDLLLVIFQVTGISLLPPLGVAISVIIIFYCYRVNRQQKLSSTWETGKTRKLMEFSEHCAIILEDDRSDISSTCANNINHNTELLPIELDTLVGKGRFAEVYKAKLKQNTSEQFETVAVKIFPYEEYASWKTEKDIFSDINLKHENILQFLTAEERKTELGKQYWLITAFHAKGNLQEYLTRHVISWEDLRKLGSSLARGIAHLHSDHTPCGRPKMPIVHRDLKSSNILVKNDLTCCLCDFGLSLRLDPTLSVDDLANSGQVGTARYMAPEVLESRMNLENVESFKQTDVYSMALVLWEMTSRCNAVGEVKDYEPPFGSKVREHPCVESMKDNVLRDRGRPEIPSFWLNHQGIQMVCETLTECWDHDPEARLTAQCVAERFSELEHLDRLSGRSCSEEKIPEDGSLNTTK
Sequence of MAP kinase-interacting serine/threonine-protein kinase 1 (Homo sapiens) (Q9BUB5 whole entry, looked up): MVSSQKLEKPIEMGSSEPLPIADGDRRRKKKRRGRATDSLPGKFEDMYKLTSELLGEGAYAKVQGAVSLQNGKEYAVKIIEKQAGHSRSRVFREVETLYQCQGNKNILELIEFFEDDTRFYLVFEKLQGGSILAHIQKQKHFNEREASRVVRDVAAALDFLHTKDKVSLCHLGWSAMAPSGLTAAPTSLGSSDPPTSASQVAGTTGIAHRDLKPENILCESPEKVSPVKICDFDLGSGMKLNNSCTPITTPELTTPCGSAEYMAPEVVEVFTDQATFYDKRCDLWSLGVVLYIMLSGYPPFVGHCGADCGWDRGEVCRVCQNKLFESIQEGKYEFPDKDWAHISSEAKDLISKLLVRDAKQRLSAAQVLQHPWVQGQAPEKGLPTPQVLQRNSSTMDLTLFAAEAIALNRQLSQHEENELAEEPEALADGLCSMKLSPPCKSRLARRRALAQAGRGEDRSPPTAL

COc1cc(O)c2c(c1)CCC[C@H](O)[C@H](O)[C@@H](O)CCC[C@H](C)OC2=O
inhibition [1]: 70 to 80%
IC50 [2]: 770 nM

COc1cc(O)c2c(c1)CCC[C@H](O)[C@H](O)C(=O)/C=C\C[C@H](C)OC2=O
inhibition [3]: Active
inhibition (INH) (TGF-beta receptor type-1 [4]): Active
IC50 [5]: 8.16 nM
inhibition [6]: Active
inhibition [7]: > 80%
inhibition [8]: > 80%
inhibition [9]: > 80%
IC50 [10]: 388 nM
inhibition [11]: > 80%
IC50 [12]: 6.34 nM
inhibition [13]: Active
inhibition [14]: > 80%
IC50 [15]: 1.13 nM
inhibition [16]: > 80%
inhibition (INH) (TGF-beta receptor type-1 [17]): Active
inhibition [18]: > 80%
inhibition [19]: Active
IC50 [2]: 125 nM
inhibition [20]: Active
IC50 [21]: 1.59 nM

COc1cc(O)c2c(c1)CCC[C@H](O)[C@H](O)C(=O)NCC[C@H](C)OC2=O
inhibition [1]: inactive
inhibition [22]: < 40%
